The record followed here is patent publication US20080033274A1, “Device and Method for Monitoring the Functioning of the Lower Esophageal Sphincter” (Altana Pharma AG, priority 2004, published 2008).

Molecules are shown by their SMILES.

In the test the test system is transient lower esophageal sphincter relaxations (TLESRs) in the conscious dog. The test can be described thus: Number of TLESRs (hydrogen marker gas eructations) in gastric fistula dog under barostat gastric pressure. In kind it is in vivo. To be noted: 7 μmol/kg i.v., 12 mm Hg to the stomach. The text has this:
The various aspects of the invention were studied with fistula dogs. The fistula is inserted into the stomach of the dog by methods known to the expert, for example as described in Postius S, Braeuer U. Loss of circadian rhythm in luminal acidity of canine stomach by implantation of a gastric fistula. Digestion. 1995; 56(1):3540.
The method according to the invention was used to quantify the number of transient lower esophageal sphincter relaxations (TLESRs, leading to gas refluxes) in the conscious dog, which are provoked by the introduction of hydrogen gas in the stomach. The method can be used with fasted or fed animals and it is not depending on the status of gastric acid secretion.
For the assessment of TLESRs, the gastric fistula dogs were temporarily connected via the gastric fistula to a barostat which continuously measures the gastric pressure and continuously approximates during the monitoring of the marker gas a target pressure by sucking or pumping a gas mixture of air and hydrogen, comprising 0.2-3% hydrogen, whereby 3% of hydrogen was yielding the highest sensitivity.
A target pressure was selected that causes an appropriate number of TLESRs, usually for a period of 30 min. […] The quantification of TLESRs resulting in eructations was performed by continuous collection of the gas in front of and in the middle of nose and mouth of the dog with an open measuring probe head. This gas, comprising hydrogen from the gastric gas mixture, which eructed if the dog is belching, was sucked to a hydrogen sensor (Model used: UST 2330, UST—Umweltsensortechnik GmbH, 98716 Geschwenda, Germany) registering the hydrogen concentration. Significant enhancement in hydrogen concentration in the collected gas was defined to represent a TLESR caused by an eruction. […] Some eructions occurred at 6 mm Hg and lots were measured above 12 mm Hg. However, above 12-14 mm Hg vomiting might be induced as well.
The study design was as follows: […]
0-30 minutes: detection of the number of TLESR by monitoring the concentration of hydrogen detected in the sensor […]

Take `NCC(CC(=O)O)c1ccc(Cl)cc1` (stereo not drawn) [Baclofen]: the “Number of TLESR detected in the time period indicated” value reads like this: (time period 0-10 minutes) 0.75; (time period 10-20 minutes) 0.25; (time period 20-30 minutes) 1.75.
